Holding throughout (type): in vivo, mouse
Data set [1] can be described thus: Tolerability observations in mice given DHA.
Data set [2] can be described thus: Plasma levels of DHA in mice fed DHA. The conditions noted are these: for Plasma level of DHA: values for two different mice. As for the experimental part: Mouse pancreatic acinar and lung cell suspensions were prepared from wild type (n=3) and CFTR−/− mice (n=3) by enzymatic and mechanical dissociation. In addition, brain, kidney, heart, spleen, and blood were sonicated in 0.3M sucrose buffer. Membrane lipids were extracted from cell and organ preparations with 20 volumes of chloroform-methanol 2:1 (v/v), transmethylated with 0.5 mL of 0.1 N methanolic-NaOH/BF3 reagent, and the resulting fatty acid methyl esters analyzed by gas chromatography/mass spectrometry (GC/MS). In a different set of experiments, lipids were fractionated by aminopropyl column chromatography into triglycerides, cholesterol esters, and phosphoglycerides and the fatty acid composition of each lipid class determined by a combination of enzymatic hydrolysis, transmethylation, and GC/MS.
Cystic fibrosis (UNC strain) and wild type mice (12-20 grams body weight) were fed with a complete liquid enteral formulation (Peptamen™, Nestle Clinical Nutrition, Inc.) supplemented with different quantities of the DHA-containing formulation Neuromins (Nature's Way Products Inc., Springville, Utah). DHA content in the Neuromins formulation was 100 mg per 500 mg of formulation. Mice were fed once a day at about 11 a.m., seven days a week with 20 ml of Peptamen™ supplemented with the various amounts of either Neuramins, free DHA (Sigma Chemical Co., MO) or DHA-ethyl ester (Nu-Check-Prep, Inc. MN) ranging from 0.5 mg/day of DHA to 40 mg/day of DHA.
Plasma levels of DHA in CF and wild-type mice were measured as described above in the method section.
Since the pancreas and the lung are the two primary organs affected in cystic fibrosis, AA and DHA levels in cell preparations of these organs and in wild-type and CFTR−/− mice were quantitated by GC/MS analysis. Lipids were extracted from cell suspensions, tissue homogenates, and blood plasma with 6 volumes of chloroform-methanol (2:1, v/v). The resulting emulsions were centrifuged at 600 g for 3 min and the lower phase containing the lipids was collected. This procedure was repeated twice and the lower phases from the two extractions combined. Aliquots of 30 μL of heptadecanoic acid (17:0) (1 mg/ml) were added to the extracts and used as an internal standard. Samples were evaporated to dryness under nitrogen. The resulting lipids were subsequently transmethylated using the 0.1N methanolic NaOH/boron tri fluoride reagent (Alvarez et al., (1995) Mol. Reprod. Dev. 42:334-346). The resulting fatty acid methyl esters were analyzed by Hewlett Packard GC/MS mounted with a WCOT capillary column (Supelcowax-10, 30 m×0.53 mm I.D., 1 μm film thickness) with initial and final temperatures in the column oven of 150° C. and 250° C., respectively, programmed to increase at a rate of 10° C./min. Fatty acid methyl ester peaks were identified by comparison of retention times of standard fatty acid mixtures and by mass spectrometry, and quantified using methylheptadecanoate as the internal standard. In some studies, the different lipid classes including cholesterol esters, triglycerides, free fatty acids, and glycerolipids, were also fractionated from cell and tissue extracts by aminopropyl column chromatography and the corresponding fatty acid methyl esters prepared and analyzed (Alvarez et al., (1992) J. Chromatogr. B. 577:142-145). In order to determine the fatty acids bound to the sn-2 position of lipids, the phospholipid fraction obtained by aminopropyl column chromatography was incubated at 37° C. for 15 min in 0.5 ml of PBS containing 250 units of phospholipase A2, and the resulting fatty acids methylated and analyzed by GC/MS (Alvarez et al., (1995) Mol. Reprod. Dev. 42:334-346).

For the next data set, the system named is wild-type mice. Put plainly: Pancreas and ileum morphology in wild-type mice. The settings on record: 40 mg/day for one week. As for the experimental part:
The morphology of various organs were also studied. Sample preparation were carried out as follows: 1-2 cm of ileum adjacent to the cecum was fixed in formalin, embedded in paraffin, cut in cross-section, and stained with hematoxylin/eosin. For pancreatic analyses, 2-3 mm pieces of pancreas were fixed for 1.5 h in 2% glutaraldehyde in 0.2M cacodylate buffer. Tissue samples were then washed in 0.2M cacodylate buffer and subsequently postfixed for 1 h in 1% osmium tetroxide in 0.1 M cacodylate buffer. Tissue was embedded in epon and thick sections stained with 1% toluidine blue.
Morphometry: For measurement of ileal villus height or pancreatic luminal diameter, multiple images were randomly taken at 200× using a Nikon Microphot-SA microscope equipped with a Diagnostic Instruments, Inc., Spot Digitizing System. Images were examined in a blinded fashion by two independent observers. Quantitation was performed using NIH Imaging Software. The differences between the means in the groups tested were evaluated using the Student's t-test.

A further data set relates to CFTR−/− mice. Put plainly: Ileal villus height in CFTR−/− mice. The settings on record: 40 mg/day. As for the experimental part:
CF and WT mice were fed as outlined in the method section above. Ileal height, i.e., the villi height in the ileum, was measured in CF knockout animals treated with either Peptamen™ alone, Peptamen™ +40 mg per day DHA, or Wild Type (WT) animals treated with Peptamen™ alone. Animals were sacrificed at 50 days of age, ileum fixed in paraformaldehyde, and the height measured on micrographs at 100×. […] The results are outlined in FIG. 2. […] Statistically significant differences (p<0.005) were found between wild-type and CF mice as well as between CF+40 mg DHA/day and CF. There was no statistically significant difference between WT and CF+40 mg DHA/day. […]
Morphometry: For measurement of ileal villus height or pancreatic luminal diameter, multiple images were randomly taken at 200× using a Nikon Microphot-SA microscope equipped with a Diagnostic Instruments, Inc., Spot Digitizing System. […] Quantitation was performed using NIH Imaging Software. The differences between the means in the groups tested were evaluated using the Student's t-test.
Thus, the morphologic and morphometric studies utilized with the pancreas were also performed on the ileum. Tissue from the wild type and CFTR−/− mice was prepared for light microscopy and sections analyzed at 200×. […] Morphometric analysis is shown in FIG. 8, the villous height was quantitated using NIH image software and expressed as mean […]±S.D. (n=6). […]

Values joined by “and” are separate entries in the source; they are usually repeats but may differ in a detail not shown here. Equal values may be shown once. “Also recorded” adds a separate entry of the source.

On to `CC/C=C\C/C=C\C/C=C\C/C=C\C/C=C\C/C=C\CCC(=O)O` [DHA, docosahexaenoic acid], for which, in data set [1] (CFTR−/− or wild-type mice, 40 mg per day of DHA), the Diarrhea result was “No overt diarrhea”. For the same compound, the Side effects result in data set [1] (treated pregnant mice and their newborns, monitored for up to one month) is given as “no obvious long-term side effects; also recorded: no observed side effects”. Further, the “Plasma level of DHA” value in data set [2] (CF mice, 0.5 mg/day DHA) was 41 µg/mL and 40 µg/mL; in data set [2] (CF mice, 2 mg/day DHA) it was 99 µg/mL and 77 µg/mL; in data set [2] (CF mice, 10 mg/day DHA), 106 µg/mL and 133 µg/mL; in data set [2] (CF mice, 40 mg/day DHA) it was 230 µg/mL and 263 µg/mL; in data set [2] (WT mice, 40 mg/day DHA), 214 µg/mL and 194 µg/mL. For the same compound, in data set [2] (CFTR−/− mice, 35 to 40 mg/day DHA in liquid enteral formulation), the “DHA plasma level reached” value is recorded as “above 170 μg/ml”. Further, the “DHA plasma levels in CFTR−/− versus wild-type mice” value in data set [2] (increasing oral doses of DHA, p=0.5, n=3 (FIG. 6)) was “not significantly different”.
Regarding `CC/C=C\C/C=C\C/C=C\CCCCCCCC(=O)O` [LNA, α-linolenic acid, reference compound], the “Effect on pancreas morphology (in words)” value was “did not produce and observable effects on pancreas morphology” with wild-type mice; “did not produce any observable effects on pancreas morphology” in the data set on wild-type mice (listed as 18:3n-3). Moreover, the “Effect on ileal/intestinal villus height (in words)” value in the data set with CFTR−/− mice is on record as “increased intestinal villi height”.

Values taken from patent publication US20040127567A1, “Novel methods for treating disorders in which docosahexaenoic acid (DHA) levels are affected” (Beth Israel Deaconess Medical Center, Inc., priority 1998, published 2004).
